Among the data in ChEMBL document CHEMBL1139311, “Synthesis of biflavones having a 6-O-7'' linkage and effects on cyclooxygenase-2 and inducible nitric oxide synthase” (Bioorg Med Chem Lett, 2009) are IC50 and inhibition values, retold here.

Common to all, as to type: cell-based
Assay [1] has as its target T1, Prostaglandin G/H synthase 2 (Mus musculus, UniProt Q05769).
T1 sequence (Q05769 whole entry): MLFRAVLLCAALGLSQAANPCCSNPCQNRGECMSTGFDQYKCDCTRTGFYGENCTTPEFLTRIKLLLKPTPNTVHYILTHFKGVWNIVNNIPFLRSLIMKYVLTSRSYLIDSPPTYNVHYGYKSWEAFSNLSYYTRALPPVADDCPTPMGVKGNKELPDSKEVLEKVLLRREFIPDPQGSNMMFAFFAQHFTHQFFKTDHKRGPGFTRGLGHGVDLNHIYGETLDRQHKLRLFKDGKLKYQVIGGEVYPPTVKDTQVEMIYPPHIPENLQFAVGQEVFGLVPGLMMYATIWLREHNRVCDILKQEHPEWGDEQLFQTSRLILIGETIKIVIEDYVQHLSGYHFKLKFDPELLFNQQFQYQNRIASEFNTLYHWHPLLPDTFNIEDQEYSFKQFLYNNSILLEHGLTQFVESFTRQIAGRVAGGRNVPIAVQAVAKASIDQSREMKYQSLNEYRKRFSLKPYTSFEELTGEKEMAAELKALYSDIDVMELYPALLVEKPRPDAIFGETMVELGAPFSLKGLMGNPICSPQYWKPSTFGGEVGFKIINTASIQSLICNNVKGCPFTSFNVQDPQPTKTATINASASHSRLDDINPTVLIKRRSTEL
Briefly: Inhibition of COX2-mediated PGE2 production in LPS-stimulated mouse RAW264.7 cells by ELISA.

Assay [2] deals with T2, Nitric oxide synthase, inducible (Mus musculus, UniProt P29477).
T2 sequence (P29477 whole entry): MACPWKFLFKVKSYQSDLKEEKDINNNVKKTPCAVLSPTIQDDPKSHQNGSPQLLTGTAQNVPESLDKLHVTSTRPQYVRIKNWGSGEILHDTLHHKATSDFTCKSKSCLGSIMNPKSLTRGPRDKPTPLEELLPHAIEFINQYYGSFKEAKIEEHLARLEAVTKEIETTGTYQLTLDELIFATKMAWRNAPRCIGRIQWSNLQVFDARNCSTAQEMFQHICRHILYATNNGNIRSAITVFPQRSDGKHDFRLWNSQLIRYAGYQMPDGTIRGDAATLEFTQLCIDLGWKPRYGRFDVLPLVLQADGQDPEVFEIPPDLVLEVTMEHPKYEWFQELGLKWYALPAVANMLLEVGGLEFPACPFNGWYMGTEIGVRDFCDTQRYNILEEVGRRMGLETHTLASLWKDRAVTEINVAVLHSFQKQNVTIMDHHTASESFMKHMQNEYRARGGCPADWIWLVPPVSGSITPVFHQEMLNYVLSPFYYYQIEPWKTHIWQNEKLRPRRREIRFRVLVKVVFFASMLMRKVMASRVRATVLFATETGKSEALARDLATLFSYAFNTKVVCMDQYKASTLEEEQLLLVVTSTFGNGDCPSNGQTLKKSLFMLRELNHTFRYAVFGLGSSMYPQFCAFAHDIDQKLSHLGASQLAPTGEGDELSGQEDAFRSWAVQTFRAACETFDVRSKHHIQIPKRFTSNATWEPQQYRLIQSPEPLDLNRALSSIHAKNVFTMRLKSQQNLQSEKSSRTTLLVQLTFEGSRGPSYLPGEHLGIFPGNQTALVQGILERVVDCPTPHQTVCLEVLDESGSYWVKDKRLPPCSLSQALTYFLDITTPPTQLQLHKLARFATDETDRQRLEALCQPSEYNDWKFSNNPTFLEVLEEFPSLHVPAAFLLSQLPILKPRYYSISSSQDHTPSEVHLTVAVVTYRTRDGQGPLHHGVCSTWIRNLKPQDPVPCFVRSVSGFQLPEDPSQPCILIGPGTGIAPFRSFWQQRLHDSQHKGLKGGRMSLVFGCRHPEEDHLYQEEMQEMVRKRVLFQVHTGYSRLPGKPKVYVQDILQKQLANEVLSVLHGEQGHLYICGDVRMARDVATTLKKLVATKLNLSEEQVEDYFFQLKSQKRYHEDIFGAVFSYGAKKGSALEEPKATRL
The assay is described as follows: Inhibition of iNOS-mediated NO production in LPS-stimulated mouse RAW264.7 cells by Griess method.

Assay [3] concerns the target T3, Nitric oxide synthase, inducible (Mus musculus) (UniProt P29477).
T3 sequence (whole entry): T2 sequence (P29477 whole entry)
Briefly: Inhibition of iNOS-mediated NO production in LPS-stimulated mouse RAW264.7 cells at […].

Where only a bound is given, the exact number is not on record here.

In general, IC50 refers to the concentration that inhibits the measured activity by half. Low readings indicate inhibition by little substance, high ones a need for much substance. Take `O=c1cc(-c2ccc(O)cc2)oc2cc(Oc3ccc4oc(-c5ccc(O)cc5O)cc(=O)c4c3)ccc12`: the IC50 in assay [1] and in assay [2] was above 50 µM each time.

Consider `O=c1cc(-c2ccccc2)oc2cc(Oc3ccc4oc(-c5ccccc5)cc(=O)c4c3)ccc12`, for which the IC50 is below 2 µM in assay [1] and above 50 µM in assay [2].

For the compound `O=c1cc(-c2ccc(O)cc2O)oc2cc(Oc3ccc4oc(-c5ccc(O)cc5O)cc(=O)c4c3)ccc12`, the IC50 in assay [1] and in assay [2] was 10 µM throughout.

`O=c1cc(-c2ccc(O)cc2)oc2cc(Oc3ccc4oc(-c5ccc(O)cc5)cc(=O)c4c3)ccc12` registered an IC50 in assay [1] above 50 µM.

In turn, `COc1ccc(-c2cc(=O)c3cc(Oc4ccc5c(=O)cc(-c6ccccc6)oc5c4)ccc3o2)cc1` registered an IC50 in assay [1] of 2 µM.

In the case of `O=c1cc(-c2ccccc2)oc2cc(Oc3ccc4oc(-c5ccccc5O)cc(=O)c4c3)ccc12`, in assay [1], the IC50 was above 50 µM.

The compound `COc1ccc(-c2cc(=O)c3cc(Oc4ccc5c(=O)cc(-c6ccccc6)oc5c4)ccc3o2)c(OC)c1` displayed an IC50 in assay [1] of 2 µM.

As for `COc1ccc(-c2cc(=O)c3ccc(Oc4ccc5oc(-c6ccc(OC)cc6OC)cc(=O)c5c4)cc3o2)c(OC)c1`, the IC50 was 50 µM in assay [1] and above 50 µM in assay [2].

Take `O=c1cc(-c2ccc(O)cc2)oc2ccc(Oc3ccc4c(=O)cc(-c5ccc(O)cc5O)oc4c3)cc12`: the IC50 in assay [1] was above 50 µM; in assay [2], 50 µM.

In assay [1], `O=c1cc(-c2ccccc2)oc2cc(Oc3ccc4oc(-c5ccc(O)cc5O)cc(=O)c4c3)ccc12` returned an IC50 above 50 µM.

On to `COc1ccccc1-c1cc(=O)c2cc(Oc3ccc4c(=O)cc(-c5ccccc5)oc4c3)ccc2o1`, for which the IC50 in assay [1] is above 50 µM.

On to `COc1ccc(-c2cc(=O)c3cc(Oc4ccc5c(=O)cc(-c6ccc(OC)cc6OC)oc5c4)ccc3o2)cc1`, for which the IC50 in assay [1] and in assay [2] was above 50 µM each time.

With `COc1ccc(-c2cc(=O)c3ccc(Oc4ccc5oc(-c6ccc(OC)cc6OC)cc(=O)c5c4)cc3o2)cc1`, the IC50 in assay [1] and in assay [2] was above 50 µM throughout.

A word on the inhibition: it is the share of the control response that was lost under treatment. Low readings indicate a response near the control, high ones a response far below the control. For the compound `CC1CCN=C(N)S1` (stereo not drawn), in assay [3], the inhibition came out at 92.5%.

With `O=c1cc(-c2ccc(O)cc2)oc2cc(Oc3ccc4oc(-c5ccccc5O)cc(=O)c4c3)ccc12`, the values for the IC50 in assay [1] and in assay [2] were above 50 µM and 10 µM, respectively.
